Tested on: lymphatic endothelial cells (LEC monoculture / LEC-LMC coculture in lymphangion-chip)
Assay: Lymphatic endothelial barrier function (permeability) of the lymphangion-chip after exposure to TNF-α
Type: cell-based
Conditions: LMCs cocultured with LECs (graph 400, FIG. 22)

Tumor Necrosis Factor Alpha (TNF-α)
lymphatic endothelial barrier function: relatively conserved

Source: US20230264191A1, “SYSTEMS AND METHODS FOR FABRICATING PHYSIOLOGICALLY RELEVANT IN VITRO VESSELS” (The Texas A&M University System, priority 2022, published 2023)
